Measurements published in patent US8871796B2, “Diaryl ether derivatives as notch sparing gamma secretase inhibitors” (Merck Sharp & Dohme Corp., priority 2009, dated 2014).
Read-outs that look alike come from different tables or passages of the source.

Assay: APP processing: AlphaLisa assay of secreted Aβ40 and Aβ42 from SP4CT cells
Format: cell-based
Conditions: Homo sapiens, SH-SY5Y cells expressing amyloid β protein (SP4CT cells)
Summary of the method: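 Media from compound-treated SP4CT cells (SH-SY5Y expressing amyloid β protein) was assayed by AlphaLisa. Donor beads carried biotinylated 4G8 anti-Aβ antibody; acceptor beads carried G210 (Aβ40) or 12F4 (Aβ42) in separate plates, with luminescence proportional to peptide abundance.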

[1] = read-out: IC50, inhibition of production of Aβ40 peptide
[2] = read-out: IC50, inhibition of production of Aβ42 peptide

SMILES	IC50 [1] [nM]	IC50 [2] [nM]
CCn1nc(-c2cccc(C(C)(C)NS(=O)(=O)CC(F)(F)F)c2)cc1Oc1ccccc1 [Example 57, N-{1-[3-(1-ethyl-5-phenoxy-1H-pyrazol-3-yl)phenyl]-1-methylethyl}-2,2,2-trifluoroethanesulfonamide]	< 200	< 200
CCn1nc(-c2cccc(C(C)(C)NS(=O)(=O)CC(F)(F)F)c2)cc1Oc1ccc(CNCC(=O)OC)cc1 [Example 81, methyl N-[4-({1-ethyl-3-[3-(1-methyl-1-{[(2,2,2-trifluoroethyl)sulfonyl]amino}ethyl)phenyl]-1H-pyrazol-5-yl}oxy)benzyl]glycinate]	< 200	< 200
CCn1nc(-c2cccc(C(C)(C)NS(=O)(=O)CC(F)(F)F)c2)cc1Oc1ccc(F)cc1 [Example 56, N-(1-{3-[1-ethyl-5-(4-fluorophenoxy)-1H-pyrazol-3-yl]phenyl}-1-methylethyl)-2,2,2-trifluoroethanesulfonamide]	< 200	< 200
CCn1nc(-c2cccc(C3(NS(=O)(=O)CC(F)(F)F)CCC3)c2)cc1Oc1ccc(C(F)(F)F)cc1 [Example 109, N-[1-(3-{1-ethyl-5-[4-(trifluoromethyl)phenoxy]-1H-pyrazol-3-yl}phenyl)cyclobutyl]-2,2,2-trifluoroethanesulfonamide]	< 200	< 200
CCn1nc(Oc2ccc(C(F)(F)F)cc2)cc1-c1ccc2c(c1)CC(NS(=O)(=O)NCC(F)(F)F)C2 (centres unmarked) [Example 120, (N-[5-(1-Ethyl-3-(4-trifluoromethylphenoxy)-1H-pyrazol-5-yl)-2,3-dihydro-1H-inden-2-yl]-N′-(2,2,2-trifluoroethyl)sulfuric diamide)]	< 200	< 200
CCn1nc(-c2cccc(C(C)(C)NS(=O)(=O)CC(F)(F)F)c2)cc1Oc1ccc(CNCc2ccccn2)cc1 [Example 77, N-(1-{3-[1-ethyl-5-(4-{[(pyridin-2-ylmethyl)amino]methyl}phenoxy)-1H-pyrazol-3-yl]phenyl}-1-methylethyl)-2,2,2-trifluoroethanesulfonamide]	< 200	< 200
CCn1nc(-c2cccc(C3(NS(=O)(=O)NC4CCC(F)(F)C4)COC3)c2)cc1Oc1ccc(C(F)(F)F)cc1 (centres unmarked) [Example 99]	< 200	< 200
CCn1nc(-c2cccc(C(C)(C)NS(=O)(=O)CC(F)(F)F)c2)cc1Oc1ccc(CNCc2ccccc2)cc1 [Example 79, N-{1-[3-(5-{4-[(benzylamino)methyl]phenoxy}-1-ethyl-1H-pyrazol-3-yl)phenyl]-1-methylethyl}-2,2,2-trifluoroethanesulfonamide]	< 200	< 200
O=S(=O)(CC(F)(F)F)NC1(c2cccc(-c3cc(Oc4ccc(C(F)(F)F)cc4)n(Cc4cocn4)n3)c2)COC1 [Example 134, N-(3-{3-[5-(4-trifluoromethylphenoxy)-1-(1,3-oxazol-4-ylmethyl)-1H-pyrazol-3-yl]phenyl}oxetan-3-yl)-2,2,2-trifluoroethanesulfonamide]	< 200	< 200
CCn1nc(-c2cccc(C3(NS(=O)(=O)CC(F)(F)F)COC3)c2)cc1Oc1ccc(C(F)(F)F)cc1 [Example 95, N-[3-(3-{1-ethyl-5-[4-(trifluoromethyl)phenoxy]-1H-pyrazol-3-yl}phenyl)oxetan-3-yl]-2,2,2-trifluoroethanesulfonamide]	< 200	< 200
CCn1nc(-c2cccc(C(C)(C)NS(=O)(=O)CC(F)(F)F)c2)cc1Oc1ccc(C(F)(F)F)cc1F [Example 5, N-[1-(3-{1-ethyl-5-[2-fluoro-4-(trifluoromethyl)phenoxy]-1H-pyrazol-3-yl}phenyl)-1-methylethyl]-2,2,2-trifluoroethanesulfonamide]	< 200	< 200
CCn1nc(Oc2ccc(C(F)(F)F)cc2)cc1-c1cccc(C(C)(C)NS(=O)(=O)N(C)C)c1 [Example 25, N′-[1-(3-{1-ethyl-3-[4-(trifluoromethyl)phenoxy]-1H-pyrazol-5-yl}phenyl)-1-methylethyl]-N,N-dimethylsulfamide]	< 200	< 200
CCn1nc(Oc2ccc(F)cc2)cc1-c1cccc(C(C)(C)NS(=O)(=O)NCC(F)(F)F)c1 [Example 55, N-(1-{3-[1-ethyl-3-(4-fluorophenoxy)-1H-pyrazol-5-yl]phenyl}-1-methylethyl)-N'-(2,2,2-trifluoroethyl)sulfamide]	< 200	< 200
CCn1nc(-c2cccc(C(C)(C)NS(=O)(=O)CC(F)(F)F)c2)cc1Oc1ccc(CNC2CCCOC2)cc1 (centres unmarked) [Example 92, N-{1-[3-(1-ethyl-5-{4-[(tetrahydro-2H-pyran-3-ylamino)methyl]phenoxy}-1H-pyrazol-3-yl)phenyl]-1-methylethyl}-2,2,2-trifluoroethanesulfonamide]	< 200	< 200
CCn1nc(-c2cccc(C3(NS(=O)(=O)NCC(F)(F)F)COC3)c2)cc1Oc1ccc(C#N)cc1 [Example 129, N-(3-{3-[5-(4-cyanophenoxy)-1-ethyl-1H-pyrazol-3-yl]phenyl}oxetane-3-yl)-N′-(2,2,2-trifluoroethyl)sulfamide]	< 200	< 200
CCn1nc(-c2cccc(C(C)(C)NS(=O)(=O)CC(F)(F)F)c2)c(C#Cc2ccccc2)c1Oc1ccc(C(F)(F)F)cc1 [Example 119, N-[2-(3-{1-ethyl-4-(phenylethynyl)-5-[4-(trifluoromethyl)phenoxy]-1H-pyrazol-3-yl}phenyl)propan-2-yl]-2,2,2-trifluoroethanesulfonamide]	< 200	< 200
CCn1nc(-c2cccc(C(C)(C)NS(=O)(=O)CC(F)(F)F)c2)cc1Oc1ccc(CNCC2CCOCC2)cc1 [Example 91, N-(1-{3-[1-ethyl-5-(4-{[(tetrahydro-2H-pyran-4-ylmethyl)amino]methyl}phenoxy)-1H-pyrazol-3-yl]phenyl}-1-methylethyl)-2,2,2-trifluoroethanesulfonamide]	< 200	< 200
CCn1nc(-c2cccc(C3(NS(=O)(=O)CC(F)(F)F)CC3)c2)cc1Oc1ncc(F)cn1 [Example 49, N-[1-(3-{1-ethyl-5-[(5-fluoropyrimidin-2-yl)oxy]-1H-pyrazol-3-yl}phenyl)cyclopropyl]-2,2,2-trifluoroethanesulfonamide]	< 200	< 200
CCn1nc(-c2cccc(C(C)(C)NS(=O)(=O)NCC(C)C)c2)cc1Oc1ccc(C(F)(F)F)cc1 [Example 9, N-[1-(3-{1-ethyl-5-[4-(trifluoromethyl)phenoxy]-1H-pyrazol-3-yl}phenyl)-1-methylethyl]-N′-isobutylsulfamide]	< 200	< 200

Now from value to compound:

IC50 [1] [nM]	IC50 [2] [nM]	SMILES
< 200	< 200	CCn1nc(-c2cccc(C(C)(C)NS(=O)(=O)CC(F)(F)F)c2)cc1Oc1ccc(C(O)C(F)(F)F)cc1 (centres unmarked) [Example 71, N-[1-(3-{1-ethyl-5-[4-(2,2,2-trifluoro-1-hydroxyethyl)phenoxy]-1H-pyrazol-3-yl}phenyl)-1-methylethyl]-2,2,2-trifluoroethanesulfonamide]
< 200	< 200	CCn1nc(-c2cccc(C(C)(C)NS(=O)(=O)CC(F)(F)F)c2)cc1Oc1ccc(C(C)(C)C)cc1 [Example 60, N-(1-{3-[5-(4-tert-butylphenoxy)-1-ethyl-1H-pyrazol-3-yl]phenyl}-1-methylethyl)-2,2,2-trifluoroethanesulfonamide]
< 200	< 200	CCn1nc(Oc2ccc(C(F)(F)F)cc2)c(Br)c1-c1cccc(C(C)(C)NS(=O)(=O)CC(F)(F)F)c1 [Example 114, N-[2-(3-{4-Bromo-1-ethyl-3-[4-(trifluoromethyl)phenoxy]-1H-pyrazol-5-yl}phenyl)propan-2-yl]-2,2,2-trifluoroethanesulfonamide]
< 200	< 200	CCn1nc(Oc2ccc(C(F)(F)F)cc2F)cc1-c1cccc(C(C)(C)NS(=O)(=O)CC(F)(F)F)c1 [Example 21, N-[1-(3-{1-ethyl-3-[2-fluoro-4-(trifluoromethyl)phenoxy]-1H-pyrazol-5-yl}phenyl)-1-methylethyl]-2,2,2-trifluoroethanesulfonamide]
< 200	< 200	CCn1nc(Oc2ccc(C(F)(F)F)cc2)cc1-c1cccc(C2(NS(=O)(=O)NC3CCCC3)CC2)c1 [Example 29, N-cyclopentyl-N′-[1-(3-{1-ethyl-3-[4-(trifluoromethyl)phenoxy]-1H-pyrazol-5-yl}phenyl)cyclopropyl] sulfamide]
< 200	< 200	CCn1nc(Oc2ccc(C(F)(F)F)cc2)cc1-c1cccc(C2(NS(=O)(=O)NCC(C)C)CC2)c1 [Example 30, N-[1-(3-{1-ethyl-3-[4-(trifluoromethyl)phenoxy]-1H-pyrazo1-5-yl}phenyl)cyclopropyl]-N′-isobutylsulfamide]
< 200	< 200	CCn1nc(-c2cccc(C(C)(C)NS(=O)(=O)CC(F)(F)F)c2)cc1Oc1ccc(CN2CC=C(C(F)(F)F)CC2)cc1 [Example 80, N-(1-{3-[1-ethyl-5-(4-{[4-(trifluoromethyl)-3,6-dihydropyridin-1(2H)-yl]methyl}phenoxy)-1H-pyrazol-3-yl]phenyl}-1-methylethyl)-2,2,2-trifluoroethanesulfonamide]
< 200	< 200	CCn1nc(-c2cccc(C3(NS(=O)(=O)CC4CCC4)CC3)c2)cc1Oc1ccc(C(F)(F)F)cc1 [Example 37, 1-cyclobutyl-N-[1-(3-{1-ethyl-5-[4-(trifluoromethyl)phenoxy]-1H-pyrazol-3-yl}phenyl)cyclopropyl] methanesulfonamide]
< 200	< 200	CCn1nc(-c2cccc(C(C)(C)NS(=O)(=O)N(C)C)c2)cc1Oc1ccc(C(F)(F)F)cc1 [Example 14, N′-[1-(3-{1-ethyl-5-[4-(trifluoromethyl)phenoxy]-1H-pyrazol-3-yl}phenyl)-1-methylethyl]-N,N-dimethylsulfamide]
